Experiment [1] addresses von Hippel-Lindau disease tumor suppressor/Histone deacetylase 8 (+). Nature of the experiment: PROTAC activity at VHL/HDAC8 in human Jurkat cells assessed as induction of HDAC8 degradation measured for 6 hrs by Western blot analysis. Background: Immunoblotting shows a protein as a band on a membrane.
A further experiment concerns the target Histone deacetylase. As to the kind of experiment: Inhibition of HDAC in human HeLa nuclear extract using Boc-Lys(Ac)-AMC or Boc-Lys(Tfa)-AMC as substrate pre-incubated for 5 mins followed by substrate addition and measured after 30 mins by fluorescence assay. In kind it is cell-free.
The next experiment deals with Histone deacetylase 2 (Homo sapiens, UniProt Q92769). As to the kind of experiment: Inhibition of HDAC2 (unknown origin).
Sequence of Histone deacetylase 2 (Q92769 whole entry): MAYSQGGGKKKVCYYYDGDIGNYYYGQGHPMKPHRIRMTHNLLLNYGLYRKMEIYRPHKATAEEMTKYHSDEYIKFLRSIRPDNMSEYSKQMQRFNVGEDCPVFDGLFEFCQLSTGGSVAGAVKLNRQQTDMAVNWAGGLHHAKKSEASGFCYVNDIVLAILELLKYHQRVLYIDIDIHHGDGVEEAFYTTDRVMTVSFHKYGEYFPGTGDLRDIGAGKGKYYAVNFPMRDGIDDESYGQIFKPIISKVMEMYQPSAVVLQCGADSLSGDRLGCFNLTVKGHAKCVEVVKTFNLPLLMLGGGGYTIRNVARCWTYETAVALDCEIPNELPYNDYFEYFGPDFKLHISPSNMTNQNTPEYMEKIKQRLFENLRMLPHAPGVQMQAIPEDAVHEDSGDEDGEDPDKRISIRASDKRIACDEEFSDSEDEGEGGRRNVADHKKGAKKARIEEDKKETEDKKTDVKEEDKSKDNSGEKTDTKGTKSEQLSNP
Another experiment deals with T1, Histone deacetylase 8 (Homo sapiens, UniProt Q9BY41).
T1 sequence (Q9BY41 whole entry): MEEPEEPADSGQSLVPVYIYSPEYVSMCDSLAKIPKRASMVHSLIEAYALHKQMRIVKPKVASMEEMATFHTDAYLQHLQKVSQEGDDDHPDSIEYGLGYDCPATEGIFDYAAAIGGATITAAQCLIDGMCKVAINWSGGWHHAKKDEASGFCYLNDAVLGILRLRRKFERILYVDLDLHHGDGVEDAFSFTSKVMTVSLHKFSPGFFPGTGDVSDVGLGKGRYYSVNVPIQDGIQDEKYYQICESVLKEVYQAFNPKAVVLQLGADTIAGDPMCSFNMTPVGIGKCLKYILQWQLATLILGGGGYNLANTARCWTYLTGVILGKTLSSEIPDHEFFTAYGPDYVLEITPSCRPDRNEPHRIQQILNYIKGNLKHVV
As to the kind of experiment: Inhibition of HDAC8 (unknown origin) using biotinylated histone H3 KAc peptide (1 to 21 residues) as substrate by HTRF assay. Background: TR-FRET usually uses a lanthanide donor and a delayed reading to cut background.

The text below walks through data of ChEMBL document CHEMBL6078634, “HDAC8 as a target in drug discovery: Function, structure and design” (Eur J Med Chem, 2024).

A value given as a limit tells only on which side of the number the result lay.

On to `O=C1CCC(N2C(=O)c3cccc(NCc4cn(CCOCCOc5ccc(Cn6ccc7ccc(C(=O)NO)cc76)cc5)nn4)c3C2=O)C(=O)N1` (stereo not given), for which the DC50 (usually the concentration giving 50% degradation) in experiment [1] stood at 0.58 µM.

As to `COc1ccc(C(=O)NO)cc1OCc1ccc(C(=O)NCCCCCCCCNc2cccc3c2C(=O)N(C2CCC(=O)NC2=O)C3=O)cc1` (stereo not given), in experiment [1], the DC50 came to 0.0018 µM.

With `COc1ccc(/C=C/C(=O)NO)c(-c2ccc(Br)cc2)c1`, the IC50 – broadly, the concentration at which inhibition is half-maximal – at Histone deacetylase is above 10 µM.

In the case of `O=c1cc(-c2ccccc2)oc2cc(O)cc(O)c12` [CHRYSIN], the IC50 against Histone deacetylase 2 is 129 µM; against Histone deacetylase 8 it was 40.2 µM.
